The values that follow come from ChEMBL document CHEMBL4811221, “Diosgenin Derivatives as Potential Antitumor Agents: Synthesis, Cytotoxicity, and Mechanism of Action” (J Nat Prod, 2021).

Molecules are shown by their SMILES.

One experiment relates to HepG2. Kind of experiment: Cytotoxicity against human HepG2 cells assessed as cell growth inhibition measured after 24 hrs by MTT assay. To be noted: HepG2, 24 h. In kind it is functional, cell-based. In general terms: Tetrazolium assays rely on reduction of a dye to a coloured formazan, in cell work by metabolically active cells.
A further experiment concerns MCF7. Kind of experiment: Cytotoxicity against human MCF7 cells assessed as cell growth inhibition measured after 24 hrs by MTT assay. Type of experiment: functional, cell-based. To be noted: MCF7, 24 h.
The next experiment concerns A549. Kind of experiment: Cytotoxicity against human A549 cells assessed as cell growth inhibition measured after 24 hrs by MTT assay. In kind it is functional, cell-based. To be noted: A549, 24 h.
The next experiment deals with L02. Kind of experiment: Cytotoxicity against human L02 cells assessed as cell growth inhibition measured after 24 hrs by MTT assay. In kind it is cell-based. Particulars: L02, 24 h.

As for `C[C@@H]1CC[C@@]2(OC1)O[C@H]1C[C@H]3[C@@H]4CC=C5C[C@@H](OC(=O)CCC(=O)N6CCc7ccccc7C6)CC[C@]5(C)[C@H]4CC[C@]3(C)[C@H]1[C@@H]2C`, the IC50 in the experiment with HepG2 and in the experiment on MCF7 was over 10 µM throughout.

Take `CCN(CC)C(=O)/C=C\C(=O)O[C@H]1CC[C@@]2(C)C(=CC[C@H]3[C@@H]4C[C@@H]5O[C@]6(CC[C@@H](C)CO6)[C@@H](C)[C@@H]5[C@@]4(C)CC[C@@H]32)C1`: the IC50 (as a rule, the concentration needed to halve the response being measured) is over 10 µM in the experiment on HepG2, over 10 µM in the experiment with MCF7 and 7.1 µM in the experiment on A549.

Turning to `CCS(=O)(=O)N1CCN(C(=O)CCC(=O)O[C@H]2CC[C@@]3(C)C(=CC[C@H]4[C@@H]5C[C@@H]6O[C@]7(CC[C@@H](C)CO7)[C@@H](C)[C@@H]6[C@@]5(C)CC[C@@H]43)C2)CC1`, the IC50 was over 10 µM in the experiment with HepG2, over 10 µM in the experiment on MCF7 and 6.2 µM in the experiment with A549.

On to `C[C@@H]1CC[C@@]2(OC1)O[C@H]1C[C@H]3[C@@H]4CC=C5C[C@@H](O)CC[C@]5(C)[C@H]4CC[C@]3(C)[C@H]1[C@@H]2C` [DISOGENIN], for which the IC50 with HepG2, in the experiment with MCF7 and in the experiment on A549 was over 10 µM in each case.

Regarding `C[C@@H]1CC[C@@]2(OC1)O[C@H]1C[C@H]3[C@@H]4CC=C5C[C@@H](OC(=O)CCC(=O)N6CC[N+](Cc7ccc(Cl)cc7)(Cc7ccc(Cl)cc7)CC6)CC[C@]5(C)[C@H]4CC[C@]3(C)[C@H]1[C@@H]2C`, the IC50 in the experiment with HepG2 is over 10 µM; in the experiment with MCF7 it was over 10 µM; with A549, 5.4 µM.

Regarding `C[C@@H]1CC[C@@]2(OC1)O[C@H]1C[C@H]3[C@@H]4CC=C5C[C@@H](OC(=O)c6ccccc6C(=O)N6CCNCC6)CC[C@]5(C)[C@H]4CC[C@]3(C)[C@H]1[C@@H]2C`, the IC50 came out at 7.5 µM in the experiment on HepG2, 8.1 µM with MCF7, 7.2 µM with A549 and 27.8 µM in the experiment on L02.

Regarding `C[C@@H]1CC[C@@]2(OC1)O[C@H]1C[C@H]3[C@@H]4CC=C5C[C@@H](OC(=O)/C=C\C(=O)N6CCc7ccccc7C6)CC[C@]5(C)[C@H]4CC[C@]3(C)[C@H]1[C@@H]2C`, in the experiment on A549, the IC50 was found to be 7.6 µM.

On to `C[C@@H]1CC[C@@]2(OC1)O[C@H]1C[C@H]3[C@@H]4CC=C5C[C@@H](OC(=O)CCC(=O)N6CCN(S(=O)(=O)C7CC7)CC6)CC[C@]5(C)[C@H]4CC[C@]3(C)[C@H]1[C@@H]2C`, for which the values for the IC50 with HepG2, with MCF7 and in the experiment with A549 were over 10 µM, over 10 µM and 4.2 µM, respectively.

For `C[C@@H]1CC[C@@]2(OC1)O[C@H]1C[C@H]3[C@@H]4CC=C5C[C@@H](OC(=O)CCC(=O)N6CCN(S(=O)(=O)O)CC6)CC[C@]5(C)[C@H]4CC[C@]3(C)[C@H]1[C@@H]2C`, the IC50 in the experiment with HepG2 and in the experiment on MCF7 was over 10 µM each time.

On to `C[C@@H]1CC[C@@]2(OC1)O[C@H]1C[C@H]3[C@@H]4CC=C5C[C@@H](OC(=O)CCC(=O)N6CC[N+](Cc7ccccc7)(Cc7ccccc7)CC6)CC[C@]5(C)[C@H]4CC[C@]3(C)[C@H]1[C@@H]2C`, for which the IC50 was 6.4 µM with HepG2, 9.4 µM in the experiment on MCF7, 2.9 µM in the experiment on A549 and 18.7 µM with L02.

Take `CCN(CC)C(=O)c1ccccc1C(=O)O[C@H]1CC[C@@]2(C)C(=CC[C@H]3[C@@H]4C[C@@H]5O[C@]6(CC[C@@H](C)CO6)[C@@H](C)[C@@H]5[C@@]4(C)CC[C@@H]32)C1`: the IC50 in the experiment on HepG2 and in the experiment on MCF7 was over 10 µM in each case.

In the case of `CCN(CC)C(=O)CCCC(=O)O[C@H]1CC[C@@]2(C)C(=CC[C@H]3[C@@H]4C[C@@H]5O[C@]6(CC[C@@H](C)CO6)[C@@H](C)[C@@H]5[C@@]4(C)CC[C@@H]32)C1`, the results for the IC50 in the experiment on HepG2, in the experiment on MCF7 and in the experiment with A549 were over 10 µM, over 10 µM and 7.4 µM, respectively.

Take `C[C@@H]1CC[C@@]2(OC1)O[C@H]1C[C@H]3[C@@H]4CC=C5C[C@@H](OC(=O)c6ccccc6C(=O)N6CCOCC6)CC[C@]5(C)[C@H]4CC[C@]3(C)[C@H]1[C@@H]2C`: the IC50 in the experiment with HepG2 and in the experiment on MCF7 was over 10 µM each time.

Turning to `C[C@@H]1CC[C@@]2(OC1)O[C@H]1C[C@H]3[C@@H]4CC=C5C[C@@H](OC(=O)c6ccccc6C(=O)N6CCc7ccccc7C6)CC[C@]5(C)[C@H]4CC[C@]3(C)[C@H]1[C@@H]2C`, the IC50 with HepG2 and in the experiment with MCF7 was over 10 µM throughout.

Take `C[C@@H]1CC[C@@]2(OC1)O[C@H]1C[C@H]3[C@@H]4CC=C5C[C@@H](OC(=O)CCC(=O)N6CCN(S(=O)(=O)c7ccccc7)CC6)CC[C@]5(C)[C@H]4CC[C@]3(C)[C@H]1[C@@H]2C`: the IC50 with HepG2 is over 10 µM; with MCF7, over 10 µM; in the experiment with A549, 8.7 µM.

For `C[C@@H]1CC[C@@]2(OC1)O[C@H]1C[C@H]3[C@@H]4CC=C5C[C@@H](OC(=O)CCCC(=O)N6CCOCC6)CC[C@]5(C)[C@H]4CC[C@]3(C)[C@H]1[C@@H]2C`, the half-inhibitory concentration (IC50) is over 10 µM with HepG2, over 10 µM in the experiment on MCF7 and 8.6 µM in the experiment on A549.

Take `CCN(CC)C(=O)CCC(=O)O[C@H]1CC[C@@]2(C)C(=CC[C@H]3[C@@H]4C[C@@H]5O[C@]6(CC[C@@H](C)CO6)[C@@H](C)[C@@H]5[C@@]4(C)CC[C@@H]32)C1`: the figures for the IC50 with HepG2, in the experiment on MCF7 and with A549 were over 10 µM, over 10 µM and 4.5 µM, respectively.

Take `C[C@@H]1CC[C@@]2(OC1)O[C@H]1C[C@H]3[C@@H]4CC=C5C[C@@H](OC(=O)/C=C\C(=O)N6CCOCC6)CC[C@]5(C)[C@H]4CC[C@]3(C)[C@H]1[C@@H]2C`: the IC50 in the experiment with HepG2 is over 10 µM; in the experiment on MCF7 it was over 10 µM; in the experiment with A549, 5.5 µM.

`CC(=O)O[C@H]1C(=O)[C@@]2(C)[C@H]([C@H](OC(=O)c3ccccc3)[C@]3(O)C[C@H](OC(=O)[C@H](O)[C@@H](NC(=O)c4ccccc4)c4ccccc4)C(C)=C1C3(C)C)[C@]1(OC(C)=O)CO[C@@H]1C[C@@H]2O` [PACLITAXEL]: the IC50 was 5.4 µM with A549 and over 100 µM with L02.

In the case of `C[C@@H]1CC[C@@]2(OC1)O[C@H]1C[C@H]3[C@@H]4CC=C5C[C@@H](OC(=O)CCC(=O)N6CC[N+](Cc7ccc(C(C)(C)C)cc7)(Cc7ccc(C(C)(C)C)cc7)CC6)CC[C@]5(C)[C@H]4CC[C@]3(C)[C@H]1[C@@H]2C`, the IC50 in the experiment on HepG2 was found to be 6.7 µM; in the experiment with MCF7, 6 µM; with A549, 3 µM; in the experiment with L02, 21.2 µM.

Take `C[C@@H]1CC[C@@]2(OC1)O[C@H]1C[C@H]3[C@@H]4CC=C5C[C@@H](OC(=O)CCC(=O)N6CCCC6)CC[C@]5(C)[C@H]4CC[C@]3(C)[C@H]1[C@@H]2C`: the IC50 in the experiment on HepG2 and in the experiment with MCF7 was over 10 µM each time.

As to `Cc1ccc(S(=O)(=O)N2CCN(C(=O)CCC(=O)O[C@H]3CC[C@@]4(C)C(=CC[C@H]5[C@@H]6C[C@@H]7O[C@]8(CC[C@@H](C)CO8)[C@@H](C)[C@@H]7[C@@]6(C)CC[C@@H]54)C3)CC2)cc1`, the IC50 with HepG2 is over 10 µM; with MCF7, over 10 µM; in the experiment on A549, 4.7 µM.

As to `C=CS(=O)(=O)N1CCN(C(=O)CCC(=O)O[C@H]2CC[C@@]3(C)C(=CC[C@H]4[C@@H]5C[C@@H]6O[C@]7(CC[C@@H](C)CO7)[C@@H](C)[C@@H]6[C@@]5(C)CC[C@@H]43)C2)CC1`, the IC50 is 5.1 µM in the experiment with HepG2, over 10 µM with MCF7, 4.1 µM in the experiment on A549 and 23.6 µM in the experiment on L02.

Take `C[C@@H]1CC[C@@]2(OC1)O[C@H]1C[C@H]3[C@@H]4CC=C5C[C@@H](OC(=O)CCC(=O)N6CCOCC6)CC[C@]5(C)[C@H]4CC[C@]3(C)[C@H]1[C@@H]2C`: the IC50 was 10.4 µM in the experiment with HepG2, over 10 µM with MCF7, 3.2 µM in the experiment with A549 and 34.3 µM in the experiment on L02.

Take `C[C@@H]1CC[C@@]2(OC1)O[C@H]1C[C@H]3[C@@H]4CC=C5C[C@@H](OC(=O)CCC(=O)N6CCN(S(=O)(=O)c7ccc(F)cc7)CC6)CC[C@]5(C)[C@H]4CC[C@]3(C)[C@H]1[C@@H]2C`: the values for the IC50 in the experiment on HepG2, with MCF7 and in the experiment on A549 were over 10 µM, over 10 µM and 3.7 µM, respectively.

On to `C[C@@H]1CC[C@@]2(OC1)O[C@H]1C[C@H]3[C@@H]4CC=C5C[C@@H](OC(=O)CCCC(=O)N6CCCC6)CC[C@]5(C)[C@H]4CC[C@]3(C)[C@H]1[C@@H]2C`, for which the values for the IC50 in the experiment on HepG2, in the experiment on MCF7 and in the experiment with A549 were 8.3 µM, over 10 µM and 5.6 µM, respectively.

As for `C[C@@H]1CC[C@@]2(OC1)O[C@H]1C[C@H]3[C@@H]4CC=C5C[C@@H](OC(=O)CCCC(=O)N6CCc7ccccc7C6)CC[C@]5(C)[C@H]4CC[C@]3(C)[C@H]1[C@@H]2C`, the IC50 with HepG2 and in the experiment on MCF7 was over 10 µM each time.

Take `C[C@@H]1CC[C@@]2(OC1)O[C@H]1C[C@H]3[C@@H]4CC=C5C[C@@H](OC(=O)/C=C\C(=O)N6CCCC6)CC[C@]5(C)[C@H]4CC[C@]3(C)[C@H]1[C@@H]2C`: the IC50 in the experiment on HepG2 and in the experiment with MCF7 was over 10 µM each time.

For the compound `C[C@@H]1CC[C@@]2(OC1)O[C@H]1C[C@H]3[C@@H]4CC=C5C[C@@H](OC(=O)/C=C\C(=O)N6CCNCC6)CC[C@]5(C)[C@H]4CC[C@]3(C)[C@H]1[C@@H]2C`, the results for the IC50 in the experiment with HepG2, in the experiment with MCF7 and in the experiment on L02 were over 10 µM, 2.3 µM and 39.1 µM, respectively.

In the case of `C[C@@H]1CC[C@@]2(OC1)O[C@H]1C[C@H]3[C@@H]4CC=C5C[C@@H](OC(=O)c6ccccc6C(=O)N6CCCC6)CC[C@]5(C)[C@H]4CC[C@]3(C)[C@H]1[C@@H]2C`, the IC50 in the experiment on HepG2 and with MCF7 was over 10 µM throughout.
